Experimental data as given in ChEMBL document CHEMBL4418298, “Cyp8b1 and uses thereof in therapeutic and diagnostic methods” (2014).
pIC50: −log10 of the molar value.

Target: T1, 7-alpha-hydroxycholest-4-en-3-one 12-alpha-hydroxylase (Homo sapiens, UniProt Q9UNU6)
T1 sequence (Q9UNU6 whole entry): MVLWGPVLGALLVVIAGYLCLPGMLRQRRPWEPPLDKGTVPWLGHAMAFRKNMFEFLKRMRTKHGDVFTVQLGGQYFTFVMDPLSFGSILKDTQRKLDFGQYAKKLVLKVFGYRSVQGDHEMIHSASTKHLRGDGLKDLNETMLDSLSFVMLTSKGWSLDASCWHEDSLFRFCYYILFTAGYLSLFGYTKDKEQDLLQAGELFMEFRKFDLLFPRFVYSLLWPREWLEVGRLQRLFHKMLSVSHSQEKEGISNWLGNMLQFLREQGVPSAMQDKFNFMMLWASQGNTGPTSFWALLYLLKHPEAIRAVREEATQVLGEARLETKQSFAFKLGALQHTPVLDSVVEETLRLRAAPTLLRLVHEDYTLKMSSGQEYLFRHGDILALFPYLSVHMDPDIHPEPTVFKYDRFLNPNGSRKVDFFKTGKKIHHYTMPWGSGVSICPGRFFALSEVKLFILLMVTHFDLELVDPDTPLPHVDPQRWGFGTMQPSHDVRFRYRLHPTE
Experiment: Inhibition of CYP8B1 in human liver microsomes using D7-7alpha-hydroxy-4-cholesten-3-one as substrate preincubated for 20 mins followed by substrate addition in presence of NADPH by UPLC-ESI-MS/MS analysis

SMILES | pIC50
CC(C)CCC[C@@H](C)[C@H]1CC[C@H]2[C@@H]3[C@H](O)C[C@@H]4C[C@H](O)CC[C@]4(C)[C@H]3C[C@H](O)[C@]12C | 5.12
N[C@@H]1C[C@H]1c1ccccc1.N[C@H]1C[C@@H]1c1ccccc1 (racemic) [TRANYLCYPROMINE] | 5.11
Clc1ccccc1C(c1ccccc1)(c1ccccc1)n1ccnc1 [CLOTRIMAZOLE] | 6.10
Clc1ccc(COC(Cn2ccnc2)c2ccc(Cl)cc2Cl)cc1 (stereo not drawn) [ECONAZOLE] | 6.51
CCC(C)n1ncn(-c2ccc(N3CCN(c4ccc(OC[C@H]5CO[C@](Cn6cncn6)(c6ccc(Cl)cc6Cl)O5)cc4)CC3)cc2)c1=O (stereo partly drawn) [ITRACONAZOLE] | 5.33
CC(=O)N1CCN(c2ccc(OC[C@H]3CO[C@](Cn4ccnc4)(c4ccc(Cl)cc4Cl)O3)cc2)CC1 [KETOCONAZOLE] | 5.66
Clc1ccc(COC(Cn2ccnc2)c2ccc(Cl)cc2Cl)c(Cl)c1 (stereo not drawn) [MICONAZOLE] | 5.82
CC[C@@H]([C@H](C)O)n1ncn(-c2ccc(N3CCN(c4ccc(OC[C@@H]5CO[C@@](Cn6cncn6)(c6ccc(F)cc6F)C5)cc4)CC3)cc2)c1=O [POSACONAZOLE] | 5.42
